17 compounds from US20240383856A1 (Zedira GmbH, priority 2021, published 2024) can be followed below.

A short description of data set [1]: logD by shake flask method (octanol / PBS pH 7.4, HPLC). The format is physicochemical. The conditions noted are these: octanol / PBS pH 7.4, shake flask. The method in brief:
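Shake-flask partition of compound between octanol and phosphate-buffered saline at pH 7.4, with each phase quantified by HPLC to give LogD.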

Data set [2] has as its target T1, recombinant human transglutaminase 2 (Homo sapiens, UniProt P21980).
T1 construct: purchased Zedira T022
T1 sequence (P21980 1-687): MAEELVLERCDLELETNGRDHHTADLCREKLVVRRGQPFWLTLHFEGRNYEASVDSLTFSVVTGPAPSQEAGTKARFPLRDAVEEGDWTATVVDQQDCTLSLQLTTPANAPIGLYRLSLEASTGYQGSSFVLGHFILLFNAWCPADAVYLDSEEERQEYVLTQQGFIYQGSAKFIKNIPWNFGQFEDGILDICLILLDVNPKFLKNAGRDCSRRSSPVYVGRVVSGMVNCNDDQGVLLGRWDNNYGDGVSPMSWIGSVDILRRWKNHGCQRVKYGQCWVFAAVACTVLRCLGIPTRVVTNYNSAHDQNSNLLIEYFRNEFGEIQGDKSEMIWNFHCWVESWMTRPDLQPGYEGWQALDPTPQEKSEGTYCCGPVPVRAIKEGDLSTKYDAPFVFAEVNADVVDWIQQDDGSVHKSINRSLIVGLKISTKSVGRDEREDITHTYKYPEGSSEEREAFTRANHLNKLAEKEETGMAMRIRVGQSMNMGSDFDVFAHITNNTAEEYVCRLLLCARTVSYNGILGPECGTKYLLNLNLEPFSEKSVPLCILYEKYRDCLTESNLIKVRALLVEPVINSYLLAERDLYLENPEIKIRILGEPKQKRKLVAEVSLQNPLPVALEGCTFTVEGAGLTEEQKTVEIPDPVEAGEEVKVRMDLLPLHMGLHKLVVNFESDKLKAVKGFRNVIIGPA
Nature of the data set: Transglutaminase assay (DCC-assay): incorporation of dansylcadaverine into dimethylcasein. The format is biochemical. Particulars: recombinant human TG2 10 nM; dansylcadaverine incorporation into dimethylcasein; read-out: IC50 TG2. In short, it runs like this:
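Recombinant human TG2 (10 nM final) incorporates dansylcadaverine into N,N-dimethylcasein. Reaction mix: 50 mM Tris-HCl, 10 mM CaCl2, 10 mM glutathione, 2.5% glycerol, 16.7 µM dansylcadaverine, 4 µM dimethylcasein, 200 mM NaCl, pH 8.0. Fluorescence (ex 330/em 500 nm) was followed 30 min at 37 °C; the 20–30 min slope, expressed as % of 2% DMSO control, gave IC50.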

Data set [3] can be described thus: Caco-2 permeability assay (CacoReady kit). The format is in vitro ADME. Particulars: human, Caco-2, Caco-2 barrier, CacoReady kit; above 1×10^−6 cm/s classified as permeable. In short, it runs like this: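 Read-out is the permeability coefficient Papp, obtained from transport across a Caco-2 barrier prepared from a ready-to-use kit following the manufacturer's instructions.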

Consider `CNC(=O)C(=O)CC[C@H](NC(=O)c1cncn1C)C(=O)Nc1cccn(CC(=O)NC23CC4CC(C)(CC(C)(C4)C2)C3)c1=O` [II-210, (S)-N1-(1-(2-(3,5-dimethyladamantane-1-amino)-2-oxoethyl)-2-oxo-1,2-dihydropyridin-3-yl)-N6-methyl-2-(1-methyl-1H-imidazole-5-carboxamido)-5-oxohexanediamide], for which, in data set [1], the pH-dependent lipophilicity (logD) lay in the range of 1 to 3. For the same compound, the half-maximal inhibitory concentration (IC50) in data set [2] was in the range of 40 to 400 nM. The same compound yielded a Papp in data set [3] of less than 1 ×10⁻⁶ cm/s.
The corresponding values for `CNC(=O)C(=O)CC[C@H](NC(=O)c1oc2ccccc2c1C)C(=O)Nc1cccn(CC23CC4CC(CC(Br)(C4)C2)C3)c1=O` [II-109, (2S)-N1-(1-((3-bromo-1-adamantyl)methyl)-2-oxo-1,2-dihydropyridin-3-yl)-N6-methyl-2-(3-methylbenzofuran-2-carboxamido)-5-oxohexanediamide] are 3 to 5, 40 to 400 nM and 1 to 10 ×10⁻⁶ cm/s.
The corresponding values for `CNC(=O)C(=O)CC[C@H](NC(=O)c1cn(C)nn1)C(=O)Nc1cccn(CC(=O)NC2C3CC4CC(C3)CC2C4)c1=O` (stereo partly drawn) [II-133, (S)-N1-(1-(2-(2-adamantylamino)-2-oxoethyl)-2-oxo-1,2-dihydropyridin-3-yl)-N6-methyl-2-(1-methyl-1H-1,2,3-triazole-4-carboxamido)-5-oxohexanediamide] are less than 1, 400 to 2500 nM and 1 to 10 ×10⁻⁶ cm/s.
The corresponding values for `CNC(=O)C(=O)CC[C@H](NC(=O)c1sc(-c2ccccc2)nc1C)C(=O)Nc1cccn(CC(=O)NC2C3CC4CC(C3)CC2C4)c1=O` (stereo partly drawn) [II-19, (S)-N1-(1-(2-(2-adamantylamino)-2-oxoethyl)-2-oxo-1,2-dihydropyridin-3-yl)-N6-methyl-2-(4-methyl-2-phenylthiazole-5-carboxamido)-5-oxohexanediamide] are 3 to 5, 40 to 400 nM and less than 1 ×10⁻⁶ cm/s.
`CNC(=O)C(=O)CC[C@H](NC(=O)c1oc2ccccc2c1C)C(=O)Nc1cccn(CC(=O)NC2CC3C=CC2C3)c1=O` (stereo partly drawn) [II-97, (S)-N1-(1-(2-(bicyclo[2.2.1]hept-5-en-2-ylamino)-2-oxoethyl)-2-oxo-1,2-dihydropyridin-3-yl)-N6-methyl-2-(3-methylbenzofuran-2-carboxamido)-5-oxohexanediamide] came in with a logD in data set [1] of 1 to 3. Besides, in data set [2], the IC50 lay within 40 to 400 nM. In data set [3], this compound showed a Papp of 1 to 10 ×10⁻⁶ cm/s.
The corresponding values for `Cc1c(C(=O)N[C@@H](CCC(=O)C(=O)NC2CC2)C(=O)Nc2cccn(CC(=O)NC3C4CC5CC(C4)CC3C5)c2=O)oc2ccccc12` (stereo partly drawn) [II-115, (S)-N1-cyclopropyl-N6-(1-(2-(2-adamantylamino)-2-oxoethyl)-2-oxo-1,2-dihydropyridin-3-yl)-5-(3-methylbenzofuran-2-carboxamido)-2-oxohexanediamide] are 3 to 5, 40 to 400 nM and 1 to 10 ×10⁻⁶ cm/s.
On the same counts, the results for `CNC(=O)C(=O)CC[C@H](NC(=O)c1nc(Cl)sc1C)C(=O)Nc1cccn(CC(=O)NC2C3CC4CC(C3)CC2C4)c1=O` (stereo partly drawn) [II-31, (S)-2-(2-chloro-5-methylthiazole-4-carboxamido)-N1-(1-(2-(2-adamantylamino)-2-oxoethyl)-2-oxo-1,2-dihydropyridin-3-yl)-N6-methyl-5-oxohexanediamide] are 1 to 3, 40 to 400 nM and 1 to 10 ×10⁻⁶ cm/s.
The corresponding values for `CNC(=O)C(=O)CC[C@H](NC(=O)c1sc(Br)cc1C)C(=O)Nc1cccn(CC(=O)NC2C3CC4CC(C3)CC2C4)c1=O` (stereo partly drawn) [II-21, (S)-2-(5-bromo-3-methylthiophene-2-carboxamido)-N1-(1-(2-(2-adamantylamino)-2-oxoethyl)-2-oxo-1,2-dihydropyridin-3-yl)-N6-methyl-5-oxohexanediamide] are 3 to 5, less than 40 nM and 1 to 10 ×10⁻⁶ cm/s.
`CNC(=O)C(=O)CC[C@H](NC(=O)c1oc2ccccc2c1C)C(=O)Nc1cccn(CC(=O)NC2C3CCC2CC3)c1=O` (stereo partly drawn) [II-96, (S)-N1-(1-(2-(bicyclo[2.2.1]heptan-7-ylamino)-2-oxoethyl)-2-oxo-1,2-dihydropyridin-3-yl)-N6-methyl-2-(3-methylbenzofuran-2-carboxamido)-5-oxohexanediamide] returned a log distribution coefficient (logD) in data set [1] of 1 to 3. In addition, the IC50 in data set [2] was in the range of 40 to 400 nM. The compound further registered an apparent permeability coefficient (Papp) in data set [3] of 1 to 10 ×10⁻⁶ cm/s.
On the same counts, the results for `CNC(=O)C(=O)CC[C@H](NC(=O)c1nccn1C)C(=O)Nc1cccn(CC(=O)NC[C@@H]2CC[C@H]3C[C@@H]2C3(C)C)c1=O` [II-208, (S)-N1-(1-(2-(((1S,2R,5S)-6,6-dimethylbicyclo[3.1.1]heptan-2-yl)methylamino)-2-oxoethyl)-2-oxo-1,2-dihydropyridin-3-yl)-N6-methyl-2-(1-methyl-1H-imidazole-2-carboxamido)-5-oxohexanediamide] are 1 to 3, 400 to 2500 nM and less than 1 ×10⁻⁶ cm/s.
In the case of `CNC(=O)C(=O)CC[C@H](NC(=O)c1snnc1C=O)C(=O)Nc1cccn(CC(=O)NC2C3CC4CC(C3)CC2C4)c1=O` (stereo partly drawn) [II-205, (S)-2-(4-formyl-1,2,3-thiadiazole-5-carboxamido)-N1-(1-(2-(2-adamantylamino)-2-oxoethyl)-2-oxo-1,2-dihydropyridin-3-yl)-N6-methyl-5-oxohexanediamide], in data set [1], the logD was less than 1. Besides, in data set [2], the concentration for half-maximal inhibition (IC50) was 40 to 400 nM. In addition, in data set [3], the Papp is less than 1 ×10⁻⁶ cm/s.
In the case of `CNC(=O)C(=O)CC[C@H](NC(=O)c1oc2ccccc2c1C)C(=O)Nc1cccn(CC(=O)NC2(C#N)C3CC4CC(C3)CC2C4)c1=O` (stereo partly drawn) [II-73, (S)-N1-(1-(2-(2-carbonitrileadamantane-2-amino)-2-oxoethyl)-2-oxo-1,2-dihydropyridin-3-yl)-N6-methyl-2-(3-methylbenzofuran-2-carboxamido)-5-oxohexanediamide], the pH-dependent lipophilicity (logD) in data set [1] fell in the range of 1 to 3. In addition, in data set [2], the concentration for half-maximal inhibition (IC50) fell in the range of 40 to 400 nM. For the same compound, in data set [3], the apparent permeability (Papp) is less than 1 ×10⁻⁶ cm/s.
In turn, `CNC(=O)C(=O)CC[C@H](NC(=O)c1sc(C(F)(F)F)nc1C)C(=O)Nc1cccn(CC(=O)N[C@H]2C[C@H]3CC[C@]2(C)C3(C)C)c1=O` [II-159, (S)-N1-methyl-5-(4-methyl-2-(trifluoromethyl)thiazole-5-carboxamido)-2-oxo-N6-(2-oxo-1-(2-oxo-2-((1R,2S,4R)-1,7,7-trimethylbicyclo[2.2.1]heptan-2-ylamino)ethyl)-1,2-dihydropyridin-3-yl)hexanediamide] registered a logD in data set [1] of 1 to 3. Moreover, the half-maximal inhibitory concentration (IC50) in data set [2] was 40 to 400 nM. The compound further displayed an apparent permeability coefficient (Papp) in data set [3] of 1 to 10 ×10⁻⁶ cm/s.
On the same counts, the results for `CCc1nnsc1C(=O)N[C@@H](CCC(=O)C(=O)NC)C(=O)Nc1cccn(CC(=O)NC2C3CC4CC(C3)CC2C4)c1=O` (stereo partly drawn) [II-204, (S)-2-(4-ethyl-1,2,3-thiadiazole-5-carboxamido)-N1-(1-(2-(2-adamantylamino)-2-oxoethyl)-2-oxo-1,2-dihydropyridin-3-yl)-N6-methyl-5-oxohexanediamide] are 1 to 3, 40 to 400 nM and less than 1 ×10⁻⁶ cm/s.
The corresponding values for `CNC(=O)C(=O)CC[C@H](NC(=O)c1cn[nH]n1)C(=O)Nc1cccn(CC(=O)NC2C3CC4CC(C3)CC2C4)c1=O` (stereo partly drawn) [II-131, (S)-N1-(1-(2-(2-adamantylamino)-2-oxoethyl)-2-oxo-1,2-dihydropyridin-3-yl)-N6-methyl-5-oxo-2-(2H-1,2,3-triazole-4-carboxamido) hexanediamide] are less than 1, 40 to 400 nM and less than 1 ×10⁻⁶ cm/s.
On the same counts, the results for `CNC(=O)C(=O)CC[C@H](NC(=O)c1coc2ccccc12)C(=O)Nc1cccn(CC(=O)NC2C3CC4CC(C3)CC2C4)c1=O` (stereo partly drawn) [II-136, (S)-2-(benzofuran-3-carboxamido)-N1-(1-(2-(2-adamantylamino)-2-oxoethyl)-2-oxo-1,2-dihydropyridin-3-yl)-N6-methyl-5-oxohexanediamide] are 1 to 3, 40 to 400 nM and 1 to 10 ×10⁻⁶ cm/s.
On to `CNC(=O)C(=O)CC[C@H](NC(=O)c1cncc(C(=O)O)c1)C(=O)Nc1cccn(CC(=O)NC2C3CC4CC(C3)CC2C4)c1=O` (stereo partly drawn) [II-64, (S)-5-(1-(1-(2-(2-adamantylamino)-2-oxoethyl)-2-oxo-1,2-dihydropyridin-3-ylamino)-6-(methylamino)-1,5,6-trioxohexan-2-ylcarbamoyl)nicotinic acid], for which the logD in data set [1] lay within 1 to 3. The concentration for half-maximal inhibition (IC50) in data set [2] was in the range of 40 to 400 nM. In data set [3], the Papp was less than 1 ×10⁻⁶ cm/s.
